Assays:
Assay type in all cases: in vivo
[1] = system: Glycine max; assay: Test Example 4: effect on crop by application to foliage (diluvial soil, plastic box); conditions: for c (Glycine max) effect on crop: application to foliage, application herbicide amount 320 g/ha
Summary of the method: (§1)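 Greenhouse plants (25° C. to 30° C., 14 d, diluvial soil) receive a foliar spray of water-diluted emulsifiable formulation at defined g/ha. Grading after 3 weeks uses a six-step herbicidal-ratio scale, with 4 covering 70% to <90% and 1 covering 5% to <20%.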

[2] = system: directly sowed Oryza sativa; assay: as above; conditions: for d (directly sowed Oryza sativa) effect on crop: application to foliage, application herbicide amount 320 g/ha
Summary of the method: as §1

[3] = system: Triticum aestivum; assay: as above; conditions: for e (Triticum aestivum) effect on crop: application to foliage, application herbicide amount 320 g/ha
Summary of the method: as §1

[4] = system: Zea mays; assay: as above; conditions: for b (Zea mays) effect on crop: application to foliage, application herbicide amount 320 g/ha
Summary of the method: as §1

[5] = system: Beta vulgaris ssp. vulgaris; assay: as above; conditions: for f (Beta vulgaris ssp. vulgaris) effect on crop: application to foliage, application herbicide amount 320 g/ha
Summary of the method: as §1

[6] = system: Brassica campestris L.; assay: as above; conditions: for g (Brassica campestris L.) effect on crop: application to foliage, application herbicide amount 320 g/ha
Summary of the method: as §1

[7] = system: Scirpus juncoides; assay: Test Example 2: herbicidal activity, application during weed generation in submerged conditions; conditions: Eighteenth Table; application herbicide amount 320 g/ha
Summary of the method: (§2)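 Seeds were sown together in alluvial soil kept under 4 cm of water and grown at 25 °C to 30 °C. Once plants reached the one- to two-leaf stage, the diluted emulsion was applied to the water surface at a predetermined g/ha amount, and effects were rated 0–5 after three weeks.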

[8] = system: Monochoria vaginalis; assay: as above; conditions: Eighteenth Table; application herbicide amount 320 g/ha
Summary of the method: as §2

[9] = system: Echinochloa oryzacola Vasing.; assay: as above; conditions: Eighteenth Table; application herbicide amount 320 g/ha
Summary of the method: as §2

[10] = system: Alopecurus myosuroides; assay: Test Example 4: herbicidal effect by application to foliage (diluvial soil, plastic box); conditions: for J (Alopecurus myosuroides) herbicidal effect: application to foliage, application herbicide amount 320 g/ha
Summary of the method: as §1

[11] = system: Avena fatua; assay: as above; conditions: for I (Avena fatua) herbicidal effect: application to foliage, application herbicide amount 320 g/ha
Summary of the method: as §1

[12] = system: Lolium multiflorum Lam.; assay: as above; conditions: for K (Lolium multiflorum Lam.) herbicidal effect: application to foliage, application herbicide amount 320 g/ha
Summary of the method: as §1

[13] = system: Galium spurium; assay: as above; conditions: for Q (Galium spurium) herbicidal effect: application to foliage, application herbicide amount 320 g/ha
Summary of the method: as §1

[14] = system: Apera spica-venti.; assay: as above; conditions: for L (Apera spica-venti.) herbicidal effect: application to foliage, application herbicide amount 320 g/ha
Summary of the method: as §1

[15] = system: Chenopodium album; assay: as above; conditions: for O (Chenopodium album) herbicidal effect: application to foliage, application herbicide amount 320 g/ha
Summary of the method: as §1

[16] = system: Abutilon theophrasti; assay: as above; conditions: for M (Abutilon theophrasti) herbicidal effect: application to foliage, application herbicide amount 320 g/ha
Summary of the method: as §1

[17] = system: Setaria viridis; assay: as above; conditions: for G (Setaria viridis) herbicidal effect: application to foliage, application herbicide amount 320 g/ha
Summary of the method: as §1

[18] = system: Veronica persica; assay: as above; conditions: for R (Veronica persica) herbicidal effect: application to foliage, application herbicide amount 320 g/ha
Summary of the method: as §1

[19] = system: Digitaria ciliaris; assay: as above; conditions: for F (Digitaria ciliaris) herbicidal effect: application to foliage, application herbicide amount 320 g/ha
Summary of the method: as §1

[20] = system: Echinochloa crus-galli var. crus-galli; assay: as above; conditions: for H (Echinochloa crus-galli var. crus-galli) herbicidal effect: application to foliage, application herbicide amount 320 g/ha
Summary of the method: as §1

[21] = Application herbicide amount 320 g/ha, effect on crop
[22] = Application herbicide amount 320 g/ha

Row | Structure (SMILES) | c (Glycine max) effect on crop [1] | d (directly sowed Oryza sativa) effect on crop [2] | e (Triticum aestivum) effect on crop [3] | b (Zea mays) effect on crop [4] | f (Beta vulgaris ssp. vulgaris) effect on crop [5] | g (Brassica campestris L.) effect on crop [6] | B (Scirpus juncoides) herbicidal ratio grade [7] | C (Monochoria vaginalis) herbicidal ratio grade [8] | A (Echinochloa oryzicola Vasing.) herbicidal ratio grade [9] | J (Alopecurus myosuroides) herbicidal effect [10] | I (Avena fatua) herbicidal effect [11] | K (Lolium multiflorum Lam.) herbicidal effect [12] | Q (Galium spurium) herbicidal effect [13] | L (Apera spica-venti.) herbicidal effect [14] | O (Chenopodium album) herbicidal effect [15] | M (Abutilon theophrasti) herbicidal effect [16] | G (Setaria viridis) herbicidal effect [17] | R (Veronica persica) herbicidal effect [18] | F (Digitaria ciliaris) herbicidal effect [19] | H (Echinochloa crus-galli var. crus-galli) herbicidal effect [20] | also measured
1 | Cc1nnc(NC(=O)c2ccc(C(F)(F)F)n3c([S+]([O-])C(C)C)nnc23)o1 (centres unmarked) [1-035] | 3 (Herbicidal ratio of 40% or more and less than 70%) | 4 (Herbicidal ratio of 70% or more and less than 90%) | 2 (Herbicidal ratio of 20% or more and less than 40%) | 4 (Herbicidal ratio of 70% or more and less than 90%) | 5 (Herbicidal ratio of 90% or more (almost completely withered)) | 3 (Herbicidal ratio of 40% or more and less than 70%) | 4 (Herbicidal ratio of 70% or more and less than 90%) | 4 (Herbicidal ratio of 70% or more and less than 90%) | 5 (Herbicidal ratio of 90% or more (almost completely withered)) | 2 (Herbicidal ratio of 20% or more and less than 40%) | 2 (Herbicidal ratio of 20% or more and less than 40%) | 2 (Herbicidal ratio of 20% or more and less than 40%) | 2 (Herbicidal ratio of 20% or more and less than 40%) | 3 (Herbicidal ratio of 40% or more and less than 70%) | 5 (Herbicidal ratio of 90% or more (almost completely withered)) | 5 (Herbicidal ratio of 90% or more (almost completely withered)) | 5 (Herbicidal ratio of 90% or more (almost completely withered)) | 5 (Herbicidal ratio of 90% or more (almost completely withered)) | 5 (Herbicidal ratio of 90% or more (almost completely withered)) | 5 (Herbicidal ratio of 90% or more (almost completely withered)) | –
2 | COCCOCc1nnc2c(C(=O)Nc3nnc(C)o3)ccc(C(F)(F)F)n12 [1-019] | 2 (Herbicidal ratio of 20% or more and less than 40%) | 4 (Herbicidal ratio of 70% or more and less than 90%) | 3 (Herbicidal ratio of 40% or more and less than 70%) | 2 (Herbicidal ratio of 20% or more and less than 40%) | 5 (Herbicidal ratio of 90% or more (almost completely withered)) | 4 (Herbicidal ratio of 70% or more and less than 90%) | 3 (Herbicidal ratio of 40% or more and less than 70%) | 3 (Herbicidal ratio of 40% or more and less than 70%) | 4 (Herbicidal ratio of 70% or more and less than 90%) | 2 (Herbicidal ratio of 20% or more and less than 40%) | 3 (Herbicidal ratio of 40% or more and less than 70%) | 2 (Herbicidal ratio of 20% or more and less than 40%) | 4 (Herbicidal ratio of 70% or more and less than 90%) | 4 (Herbicidal ratio of 70% or more and less than 90%) | 5 (Herbicidal ratio of 90% or more (almost completely withered)) | 4 (Herbicidal ratio of 70% or more and less than 90%) | 4 (Herbicidal ratio of 70% or more and less than 90%) | 4 (Herbicidal ratio of 70% or more and less than 90%) | 5 (Herbicidal ratio of 90% or more (almost completely withered)) | 5 (Herbicidal ratio of 90% or more (almost completely withered)) | –
3 | Cc1nnc(NC(=O)c2ccc(C(F)(F)F)n3c(C[S+](C)[O-])nnc23)o1 (centres unmarked) [1-036] | 3 (Herbicidal ratio of 40% or more and less than 70%) | 4 (Herbicidal ratio of 70% or more and less than 90%) | 3 (Herbicidal ratio of 40% or more and less than 70%) | 3 (Herbicidal ratio of 40% or more and less than 70%) | 5 (Herbicidal ratio of 90% or more (almost completely withered)) | 5 (Herbicidal ratio of 90% or more (almost completely withered)) | 2 (Herbicidal ratio of 20% or more and less than 40%) | 4 (Herbicidal ratio of 70% or more and less than 90%) | 3 (Herbicidal ratio of 40% or more and less than 70%) | 3 (Herbicidal ratio of 40% or more and less than 70%) | 4 (Herbicidal ratio of 70% or more and less than 90%) | 3 (Herbicidal ratio of 40% or more and less than 70%) | 4 (Herbicidal ratio of 70% or more and less than 90%) | 4 (Herbicidal ratio of 70% or more and less than 90%) | 5 (Herbicidal ratio of 90% or more (almost completely withered)) | 5 (Herbicidal ratio of 90% or more (almost completely withered)) | 5 (Herbicidal ratio of 90% or more (almost completely withered)) | 5 (Herbicidal ratio of 90% or more (almost completely withered)) | 5 (Herbicidal ratio of 90% or more (almost completely withered)) | 5 (Herbicidal ratio of 90% or more (almost completely withered)) | –
4 | CCC[S+]([O-])c1nnc2c(C(=O)Nc3nnc(C)o3)ccc(C(F)(F)F)n12 (centres unmarked) [1-092] | – | – | – | – | – | – | 4 (Herbicidal ratio of 70% or more and less than 90%) | 3 (Herbicidal ratio of 40% or more and less than 70%) | 4 (Herbicidal ratio of 70% or more and less than 90%) | – | – | – | – | – | – | – | – | – | – | – | c [1, 21]: 1 (Herbicidal ratio of 5% or more and less than 20%); d [2, 21]: 4 (Herbicidal ratio of 70% or more and less than 90%); e [3, 21]: 0 (Herbicidal ratio of 5% or less (almost no effect)); b [4, 21]: 5 (Herbicidal ratio of 90% or more (almost completely withered)); f [5, 21]: 5 (Herbicidal ratio of 90% or more (almost completely withered)); g [6, 21]: 3 (Herbicidal ratio of 40% or more and less than 70%); J [10, 22]: 1 (Herbicidal ratio of 5% or more and less than 20%); I [11, 22]: 2 (Herbicidal ratio of 20% or more and less than 40%); K [12, 22]: 1 (Herbicidal ratio of 5% or more and less than 20%); Q [13, 22]: 3 (Herbicidal ratio of 40% or more and less than 70%); L [14, 22]: 1 (Herbicidal ratio of 5% or more and less than 20%); O [15, 22]: 5 (Herbicidal ratio of 90% or more (almost completely withered)); M [16, 22]: 4 (Herbicidal ratio of 70% or more and less than 90%); G [17, 22]: 5 (Herbicidal ratio of 90% or more (almost completely withered)); R [18, 22]: 5 (Herbicidal ratio of 90% or more (almost completely withered)); F [19, 22]: 5 (Herbicidal ratio of 90% or more (almost completely withered)); H [20, 22]: 5 (Herbicidal ratio of 90% or more (almost completely withered))
